Source: patent US10597388B2, “Pyridazinone herbicides” (FMC CORPORATION, priority 2014, dated 2020)

What was measured:
Type in all cases: in vivo
[1] = tested on: waterhemp_RES1 (ALS & Triazine resistant common waterhemp, Amaranthus rudis); experiment: Test E greenhouse herbicide test, postemergence
Summary of the method: (§1)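 Postemergence spray of formulated test chemicals onto resistant waterhemp at 1- to 4-leaf stage (2–18 cm tall), grown in peat/vermiculite potting medium. Kept in greenhouse 14 to 21 d, then visually rated against untreated controls on a 0–100 scale (0 no effect, 100 complete control).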

[2] = tested on: waterhemp_RES2 (ALS & HPPD resistant common waterhemp, Amaranthus rudis); experiment: Test E greenhouse herbicide test, postemergence
Summary of the method: as §1

[3] = tested on: mustard, wild (wild mustard, Sinapis arvensis); experiment: Test D controlled growth environment herbicide test, pre- and postemergence
Summary of the method: (§2)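 Pre-emergence: seeds sown in silt loam soil were sprayed with compound in a non-phytotoxic solvent mix containing surfactant. Post-emergence: plants at 2 to 18 cm (1- to 4-leaf stage) in peat moss/vermiculite medium got the same formulation. Visual 0–100 rating versus controls after 14 to 21 d.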

[4] = tested on: chamomile (scentless chamomile, Matricaria inodora); experiment: as above
Summary of the method: as §2

[5] = tested on: field poppy (Papaver rhoeas); experiment: as above
Summary of the method: as §2

[6] = tested on: lambsquarters (Chenopodium album); experiment: as above
Summary of the method: as §2

[7] = tested on: windgrass (Apera spica-venti); experiment: as above
Summary of the method: as §2

[8] = tested on: blackgrass (Alopecurus myosuroides); experiment: as above
Summary of the method: as §2

[9] = tested on: radish, wild (wild radish, Raphanus raphanistrum); experiment: as above
Summary of the method: as §2

[10] = tested on: deadnettle (henbit deadnettle, Lamium amplexicaule); experiment: as above
Summary of the method: as §2

[11] = tested on: foxtail, green (green foxtail, Setaria viridis); experiment: as above
Summary of the method: as §2

[12] = tested on: barley, winter (winter barley, Hordeum vulgare); experiment: as above
Summary of the method: as §2

[13] = 31 g ai/ha, visual, scale 0 no effect to 100 complete control
[14] = 62 g ai/ha, scale 0 to 100 (0 no effect, 100 complete control)
[15] = 125 g ai/ha, scale 0 to 100 (0 no effect, 100 complete control)
[16] = 250 g ai/ha, scale 0 to 100 (0 no effect, 100 complete control)
[17] = Postemergence, 31 g ai/ha, scale 0 to 100 (0 no effect, 100 complete control)
[18] = Postemergence, 125 g ai/ha, visual rating on scale 0 (no effect) to 100 (complete control), 14 to 21 d
[19] = Postemergence, 250 g ai/ha, scale 0 to 100 (0 no effect, 100 complete control)
[20] = Preemergence, 62 g ai/ha, scale 0 to 100 (0 no effect, 100 complete control)
[21] = Preemergence, 125 g ai/ha, scale 0 to 100 (0 no effect, 100 complete control)
[22] = Preemergence, 250 g ai/ha, scale 0 to 100, 0 no effect, 100 complete control
[23] = postemergence, 62 g ai/ha, scale 0 to 100, 0 no effect, 100 complete control

CCc1sc2c(C)cc(C)cc2c1-c1c(O)c(C)nn(C)c1=O [Compound 57]
Plant response rating, Waterhemp_RES1 [1, 13]: 40
Plant response rating, Waterhemp_RES1 [1, 14]: 50
Plant response rating, Waterhemp_RES1 [1, 15]: 40
Plant response rating, Waterhemp_RES1 [1, 16]: 60
Plant response rating, Waterhemp_RES2 [2, 13]: 20
Plant response rating, Waterhemp_RES2 [2, 14]: 10
Plant response rating, Waterhemp_RES2 [2, 15]: 20
Plant response rating, Waterhemp_RES2 [2, 16]: 50
Mustard, Wild plant response rating [3, 17]: 30
Plant response rating, Mustard, Wild [3, 18]: 30
Plant response rating, Mustard, Wild [3, 19]: 40
Plant response rating (scale of 0 to 100), Mustard, Wild ([3]; Preemergence, 31 g ai/ha): 0
Plant response rating, Mustard, Wild [3, 20]: 25
Plant response rating, Mustard, Wild [3, 21]: 25
Plant response rating, Mustard, Wild [3, 22]: 30
Plant response rating, Mustard, Wild [3, 23]: 30
Chamomile plant response rating [4, 17]: 100
Plant response rating, Chamomile [4, 18]: 100
Plant response rating, Chamomile [4, 19]: 100
Plant response rating, Chamomile [4, 23]: 100
Field Poppy plant response rating [5, 17]: 100
Plant response rating, Field Poppy [5, 18]: 100
Plant response rating, Field Poppy [5, 19]: 100
Plant response rating (scale of 0 to 100), Field Poppy ([5]; Preemergence, 31 g ai/ha): 100
Plant response rating, Field Poppy [5, 20]: 100
Plant response rating, Field Poppy [5, 21]: 100
Plant response rating, Field Poppy [5, 22]: 100
Plant response rating, Field Poppy [5, 23]: 100
Lambsquarters plant response rating [6, 17]: 75
Plant response rating, Lambsquarters [6, 18]: 75
Plant response rating, Lambsquarters [6, 19]: 85
Plant response rating (scale of 0 to 100), Lambsquarters ([6]; Preemergence, 31 g ai/ha): 100
Plant response rating, Lambsquarters [6, 20]: 100
Plant response rating, Lambsquarters [6, 21]: 100
Plant response rating, Lambsquarters [6, 22]: 100
Plant response rating, Lambsquarters [6, 23]: 75
Windgrass plant response rating [7, 17]: 10
Plant response rating, Windgrass [7, 18]: 10
Plant response rating, Windgrass [7, 19]: 15
Plant response rating (scale of 0 to 100), Windgrass ([7]; Preemergence, 31 g ai/ha): 20
Plant response rating, Windgrass [7, 20]: 35
Plant response rating, Windgrass [7, 21]: 65
Plant response rating, Windgrass [7, 22]: 80
Plant response rating, Windgrass [7, 23]: 10
Blackgrass plant response rating [8, 17]: 15
Plant response rating, Blackgrass [8, 18]: 55
Plant response rating, Blackgrass [8, 19]: 75
Plant response rating (scale of 0 to 100), Blackgrass ([8]; Preemergence, 31 g ai/ha): 25
Plant response rating, Blackgrass [8, 20]: 35
Plant response rating, Blackgrass [8, 21]: 70
Plant response rating, Blackgrass [8, 22]: 80
Plant response rating, Blackgrass [8, 23]: 45
Radish, Wild plant response rating [9, 17]: 40
Plant response rating, Radish, Wild [9, 18]: 100
Plant response rating, Radish, Wild [9, 19]: 90
Plant response rating (scale of 0 to 100), Radish, Wild ([9]; Preemergence, 31 g ai/ha): 0
Plant response rating, Radish, Wild [9, 20]: 10
Plant response rating, Radish, Wild [9, 21]: 25
Plant response rating, Radish, Wild [9, 22]: 100
Plant response rating, Radish, Wild [9, 23]: 100
Deadnettle plant response rating [10, 17]: 70
Plant response rating, Deadnettle [10, 18]: 85
Plant response rating, Deadnettle [10, 19]: 100
Plant response rating (scale of 0 to 100), Deadnettle ([10]; Preemergence, 31 g ai/ha): 0
Plant response rating, Deadnettle [10, 20]: 20
Plant response rating, Deadnettle [10, 21]: 25
Plant response rating, Deadnettle [10, 22]: 45
Plant response rating, Deadnettle [10, 23]: 90
Foxtail, Green plant response rating [11, 17]: 75
Plant response rating, Foxtail, Green [11, 18]: 75
Plant response rating, Foxtail, Green [11, 19]: 90
Plant response rating (scale of 0 to 100), Foxtail, Green ([11]; Preemergence, 31 g ai/ha): 10
Plant response rating, Foxtail, Green [11, 20]: 70
Plant response rating, Foxtail, Green [11, 21]: 100
Plant response rating, Foxtail, Green [11, 22]: 100
Plant response rating, Foxtail, Green [11, 23]: 75
Barley, Winter plant response rating [12, 17]: 20
Plant response rating, Barley, Winter [12, 18]: 25
Plant response rating, Barley, Winter [12, 19]: 25
Plant response rating (scale of 0 to 100), Barley, Winter ([12]; Preemergence, 31 g ai/ha): 0
Plant response rating, Barley, Winter [12, 20]: 0
Plant response rating, Barley, Winter [12, 21]: 5
Plant response rating, Barley, Winter [12, 22]: 5
Plant response rating, Barley, Winter [12, 23]: 30
